What was measured:
Aurora kinases = assay: Kinase inhibition profile of DLT11 at 20 μM, Aurora kinases; assay type: biochemical, human; conditions: 20 μM (FIG. 3)
Method: The kinase inhibition profile of DLT11 at 20 μM was determined using 250 protein kinases. Residual activity values were measured by testing each compound at one concentration in duplicate in each kinase assay. A radiometric protein kinase assay (33 PanQinase®Activity Assay) was used for measuring the kinase activity of 250 protein kinases. All kinase assays were performed in 96-well flashPlates™ from Perkin Elmer (Boston, Mass., USA) in a 50 μl reaction volume. The reaction cocktail was pipetted in 4 steps in the following order: • 10 μl of non-radioactive ATP solution (in H2O) • 25 μl of assay buffer/[γ-33P]-ATP mixture • 5 μl of test sample in 10% DMSO • 10 μl of enzyme/substrate mixture […]
Incorporation of ^33Pi (counting of “cpm”) was determined with a microplate scintillation counter (Microbeta, Wallac).
For each kinase, the median value of the cpm of three wells with complete reaction cocktails, but without kinase, was defined as “low control” (n=3). This value reflects unspecific binding of radioactivity to the plate in the absence of protein kinase but in the presence of the substrate. […] The residual activity (in %) for each compound well was calculated by using the following formula: Res. Activity (%)=100×[(cpm of compound−low control)/(high control−low control)]

CDK5/p25 = target: T1, CDK5/p25 (Homo sapiens, UniProt Q00535); assay: Kinase activity assay, CDK5; assay type: biochemical; conditions: 10 μM, 1% DMSO, 15 μM ATP; residual activity
T1 construct: made in house
Method: (§1) Buffer A: 10 mM MgCl2, 1 mM EGTA, 1 mM DTT, 25 mM Tris-HCl pH 7.5, 50 μg heparin/ml. Buffer C: 60 mM β-glycerophosphate, 15 mM p-nitrophenylphosphate, 25 mM Mops (pH 7.2), 5 mM EGTA, 15 mM MgCl2, 1 mM DTT, 1 mM sodium vanadate, 1 mM phenyl phosphate.
(§2) Kinase activities were assayed in Buffer A or C, at 30° C., at a final ATP concentration of 15 μM. Blank values were subtracted and activities expressed in % of the maximal activity, i.e. in the absence of inhibitors. Controls were performed with appropriate dilutions of DMSO.
CDK1/cyclin B (M phase starfish oocytes, native), CDK2/cyclin A, CDK2/cyclin E, CDK5/p25 and CDK7/cyclin H (human, recombinant) were prepared as previously described (Leclerc et al., 2001, J. Biol. Chem. 2001, 276, 251-260; Bach et al., 2005, J Biol Chem 280: 31208-31219). Their kinase activity was assayed in buffer C, with 1 mg histone H1/ml, in the presence of 15 μM [gamma-^33P] ATP (3,000 Ci/mmol; 10 mCi/ml) in a final volume of 30 μl. After 30 min incubation at 30° C., 25 μl aliquots of supernatant were spotted onto 2.5×3 cm pieces of Whatman P81 phosphocellulose paper, and, 20 sec later, the filters were washed five times (for at least 5 min each time) in a solution of 10 ml phosphoric acid/liter of water. The wet filters were counted in the presence of 1 ml ACS (Amersham) scintillation fluid.

DYRK1A = DYRK1A (Rattus norvegicus, UniProt Q63470); assay: Kinase activity assay, DYRK1A (GST fusion, myelin basic protein substrate); assay type: biochemical
Method: as §1, §2
DYRK1A (rat, recombinant, expressed in E. coli as a GST fusion protein) was purified by affinity chromatography on glutathione-agarose and assayed as described for CDK1/cyclin B using myelin basic protein (1 mg/ml) as a substrate.

CK1 = assay: Kinase activity assay, CK1; assay type: biochemical, porcine; conditions: 10 μM, 1% DMSO, 15 μM ATP; residual activity
Method: as §1, §2
CK1 (porcine brain, native) was assayed as described for CDK1 but using the CK1-specific peptide substrate […]pSAYSITA (Seq. ID NO 2) (Reinhardt et al., 2007, Protein Expr. & Purif. 54, 101-109), obtained from Millegen (Labege, France).

pfGSK3 = pfGSK3 (Plasmodium falciparum, UniProt O77344); assay: Kinase activity assay, pfGSK3; assay type: biochemical; conditions: 10 μM, 1% DMSO, 15 μM ATP; residual activity
Method: as §1, §2

pfGSK3, sequence (O77344 1-440): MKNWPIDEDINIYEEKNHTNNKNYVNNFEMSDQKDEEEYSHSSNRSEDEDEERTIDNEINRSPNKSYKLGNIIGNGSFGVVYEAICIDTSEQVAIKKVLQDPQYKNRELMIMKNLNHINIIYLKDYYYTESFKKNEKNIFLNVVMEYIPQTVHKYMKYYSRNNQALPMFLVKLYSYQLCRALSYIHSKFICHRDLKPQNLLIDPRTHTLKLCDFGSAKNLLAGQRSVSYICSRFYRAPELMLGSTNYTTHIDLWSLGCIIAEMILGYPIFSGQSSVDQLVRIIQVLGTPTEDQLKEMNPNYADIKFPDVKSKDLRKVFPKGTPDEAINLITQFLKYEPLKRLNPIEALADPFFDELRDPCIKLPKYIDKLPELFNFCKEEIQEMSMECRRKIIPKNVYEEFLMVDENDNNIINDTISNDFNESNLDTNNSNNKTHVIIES
T1 sequence (Q00535 whole entry): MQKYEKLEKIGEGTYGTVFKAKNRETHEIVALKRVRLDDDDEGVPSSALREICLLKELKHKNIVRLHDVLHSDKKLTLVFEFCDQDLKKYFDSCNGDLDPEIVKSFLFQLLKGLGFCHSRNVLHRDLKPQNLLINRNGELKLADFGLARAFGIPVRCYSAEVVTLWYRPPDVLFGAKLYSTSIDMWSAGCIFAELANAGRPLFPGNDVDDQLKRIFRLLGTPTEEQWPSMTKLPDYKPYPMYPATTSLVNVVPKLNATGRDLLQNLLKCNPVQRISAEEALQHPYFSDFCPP
T1 sequence (Q15078 99-307 partner limits assumed): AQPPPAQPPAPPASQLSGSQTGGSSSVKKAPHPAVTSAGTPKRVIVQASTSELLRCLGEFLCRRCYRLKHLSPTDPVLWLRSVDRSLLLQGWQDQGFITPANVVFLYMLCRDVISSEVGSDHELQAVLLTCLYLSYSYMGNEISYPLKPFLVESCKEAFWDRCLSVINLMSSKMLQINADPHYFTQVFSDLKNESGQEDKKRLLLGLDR

Compound | inhibition of 2 Aurora kinases (Aurora kinases) | % ENZYMATIC ACTIVITY, CDK5 (CDK5/p25) [%] | inhibition at 10 µM (DYRK1A) [%] | % ENZYMATIC ACTIVITY, Dyrk1A (DYRK1A; 10 μM, 1% DMSO, 15 μM ATP, residual activity) [%] | % ENZYMATIC ACTIVITY, Ckone (CK1) [%] | % ENZYMATIC ACTIVITY, pfGSK3 (pfGSK3) [%]
COc1cc(C(=O)OCCCCCCOC(=O)c2ccc(O)c(OC)c2)ccc1O [DLT11, Hexane-1,6-diyl bis-(4-hydroxy-3-methoxybenzoate)] | more than 80% | – | – | – | – | –
COc1cc(C(=O)OCCOC(=O)c2ccc(O)c(OC)c2)ccc1O [DLT1, Ethane-1,2-diyl bis-(4-hydroxy-3-methoxybenzoate)] | – | 87 | 51 | 49 | 62 | 92

Reference: US20110280940A1, “Di-Vanilloyl And Tri-Vanilloyl Derivatives For Use In Anti-Cancer Therapy” (priority 2008, published 2011)
